Measured values reported in patent publication US20250304620A1, “ANTIMICROBIAL PEPTIDE AND APPLICATION THEREOF” (priority 2023, published 2025).
≈ marks a conversion by molar mass, not a printed value. Marks after values point to notes of the source that are not given here. Non-standard residues stand in square brackets, D forms with d. Residues, ends and D or L forms follow the SMILES beside them. dPhe(4-Br) = N[C@H](Cc1ccc(Br)cc1)C(=O)O; d2Nal = N[C@H](Cc1ccc2ccccc2c1)C(=O)O

Assays:
[1] = test system: Pseudomonas aeruginosa ATCC 27853; experiment: Injectable formulations on mice infected with peritonitis; type: in vivo, ICR mice; settings: 1 mg/kg via tail vein, twice a day for 3 days, n = 10; for Average survival times (Days): observed for 14 d
Summary of the method: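 Survival readout: deaths and survival time tracked for 14 d. Treatment was tail-vein injection by body weight, twice a day for 3 consecutive days, starting right after intraperitoneal challenge with 0.2 mL of 1×10^9 CFU/mL P. aeruginosa ATCC 27853 in male and female ICR mice.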

[2] = test system: Staphylococcus aureus (NRS 384); experiment: microbe, parasite or virus in culture; type: cell-based; settings: NRS 384
Summary of the method: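 MICs were read against S. aureus strain NRS 384 using twofold serial dilution by CLSI microdilution rules. Levofloxacin and Cbf-K16 were the reference controls, and the test was repeated 5 times in parallel.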

[3] = test system: Escherichia coli ATCC 25922; experiment: Oral formulations on mice with systemic bacterial infection; type: in vivo, ICR mice; settings: 1 mg/kg gavage, three times a day for 7 days, n = 10; for Average survival times (Days): observed for 14 d
Summary of the method: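 Survival time and deaths were logged over a 14 d observation after oral gavage dosing (by body weight, thrice daily, 7 days, starting right after infection). Model: mixed-sex ICR mice, n=10 per group, intraperitoneal injection of E. coli ATCC 25922 suspension (0.2 mL, 1×10^7 CFU/mL).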

[4] = test system: Bacillus subtilis ATCC 6633; type: cell-based
Summary of the method: (§1)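 CLSI microdilution, serial 2-fold dilutions; MIC read-out; n = 5 parallel repeats.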

[5] = test system: Escherichia coli ATCC 25922; type: cell-based
Summary of the method: as §1

[6] = test system: Candida tropicalis ATCC 750; type: cell-based
Summary of the method: as §1

Candida krusei ATCC 6258 = type: cell-based
Summary of the method: as §1

[7] = test system: Staphylococcus aureus ATCC 25923; type: cell-based
Summary of the method: as §1

[8] = test system: Klebsiella pneumoniae ATCC 700603; type: cell-based
Summary of the method: as §1

[9] = test system: Trichophyton ATCC MYA-4438; type: cell-based
Summary of the method: as §1

[10] = test system: Pseudomonas aeruginosa ATCC 27853; type: cell-based
Summary of the method: as §1

[11] = test system: Candida albicans ATCC MYA-2876; type: cell-based
Summary of the method: as §1

[12] = test system: Salmonella typhimurium ATCC 14028; type: cell-based
Summary of the method: as §1

[13] = test system: Candida glabrata ATCC 15126; type: cell-based
Summary of the method: as §1

[14] = test system: Corynebacterium ATCC 7715; type: cell-based
Summary of the method: as §1

Enterococcus ATCC 29212 = type: cell-based
Summary of the method: as §1

[15] = test system: Serratia marcescens ATCC 29021; type: cell-based
Summary of the method: as §1

Candida utilis ATCC 9950 = type: cell-based
Summary of the method: as §1

[16] = test system: Staphylococcus aureus (NRS 384); settings: NRS 384, 3 h
Description: Trypsin (250 U/mg, pH=8.0) and AMPs (LV-1 to LV-30) were mixed in a ratio of 1:10 (w/w) and added to a reaction buffer (0.2 M sodium phosphate, 1 mM CaCl2), pH 7.5), and then incubated at 37° C. for 3 h.

Structure (SMILES) | Number of mice that died on each day after infection: day 1 [1] [Mouse] | Number of mice that died on each day after infection: day 2 [1] [Mouse] | Number of mice that died on each day after infection: day 3 [1] [Mouse] | Number of mice that died on each day after infection: day 4 [1] [Mouse] | Number of mice that died on each day after infection: day 5 [1] [Mouse] | Average survival times (Days) [1] | MIC against Staphylococcus aureus (NRS 384) [2] [µg/mL] | Number of mice that died on each day after infection: day 4 [3] [Mouse] | Number of mice that died on each day after infection: day 5 [3] [Mouse] | Number of mice that died on each day after infection: day 6 [3] [Mouse] | Number of mice that died on each day after infection: day 7 [3] [Mouse] | Number of mice that died on each day after infection: day 8 [3] [Mouse] | Average survival times (Days) [3] | MIC Bacillus subtilis ATCC 6633 [4] [µg/mL] | MIC Escherichia coli ATCC 25922 [5] [µg/mL] | MIC Candida tropicalis ATCC 750 [6] [µg/mL] | MIC Candida krusei ATCC 6258 (Candida krusei ATCC 6258) [µg/mL] | MIC Staphylococcus aureus ATCC 25923 [7] [µg/mL] | MIC Klebsiella pneumoniae ATCC 700603 [8] [µg/mL] | MIC Trichophyton ATCC MYA-4438 [9] [µg/mL] | further results
CC(=O)N[C@H](CCCNC(=N)N)C(=O)N[C@H](CCCCN)C(=O)N[C@H](CC(C)C)C(=O)N[C@H](CC(C)C)C(=O)N[C@H](Cc1ccccc1)C(=O)N[C@H](CCCNC(=N)N)C(=O)N[C@H](CC(C)C)C(=O)N[C@H](CCCCN)C(=O)N[C@H](Cc1ccc2ccccc2c1)C(=O)N[C@H](CCCNC(=N)N)C(=O)N[C@H](CCCCN)C(N)=O [LV-3] (Ac-[dR][dK][dL][dL][dF][dR][dL][dK][d2Nal][dR][dK]-NH2) | 1 | 1 | 0 | 2 | 1 | 8.6** Days | 1 (≈ 0.627 µM) | 1 | 0 | 1 | 2 | 1 | 10.2*** Days | 2 (≈ 1.25 µM) | 1 (≈ 0.627 µM) | 8 (≈ 5.01 µM) | 16 (≈ 10 µM) | 2 (≈ 1.25 µM) | 2 (≈ 1.25 µM) | 16 (≈ 10 µM) | MIC Pseudomonas aeruginosa ATCC 27853 [10]: 4 µg/mL (≈ 2.51 µM); MIC Candida albicans ATCC MYA-2876 [11]: 8 µg/mL (≈ 5.01 µM); MIC Salmonella typhimurium ATCC 14028 [12]: 1 µg/mL (≈ 0.627 µM); MIC Candida glabrata ATCC 15126 [13]: 16 µg/mL (≈ 10 µM); MIC Corynebacterium ATCC 7715 [14]: 4 µg/mL (≈ 2.51 µM); MIC Enterococcus ATCC 29212 (Enterococcus ATCC 29212): 4 µg/mL (≈ 2.51 µM); MIC Serratia marcescens ATCC 29021 [15]: 4 µg/mL (≈ 2.51 µM); MIC Candida utilis ATCC 9950 (Candida utilis ATCC 9950): 8 µg/mL (≈ 5.01 µM); Trypsin MIC [16]: 1 µg/mL
CC(=O)N[C@H](CCCCN)C(=O)N[C@H](CCCCN)C(=O)N[C@H](CC(C)C)C(=O)N[C@H](CC(C)C)C(=O)N[C@H](Cc1ccc(Br)cc1)C(=O)N[C@H](CCCNC(=N)N)C(=O)N[C@H](CC(C)C)C(=O)N[C@H](CCCCN)C(=O)N[C@H](Cc1ccc(Br)cc1)C(=O)N[C@H](CCCNC(=N)N)C(=O)N[C@H](CCCCN)C(N)=O [LV-10] (Ac-[dK][dK][dL][dL][dPhe(4-Br)][dR][dL][dK][dPhe(4-Br)][dR][dK]-NH2) | 0 | 1 | 1 | 2 | 0 | 9.7*** Days | 1 (≈ 0.597 µM) | 0 | 2 | 2 | 0 | 1 | 10.0*** Days | 2 (≈ 1.19 µM) | 1 (≈ 0.597 µM) | 4 (≈ 2.39 µM) | 8 (≈ 4.77 µM) | 2 (≈ 1.19 µM) | 2 (≈ 1.19 µM) | 8 (≈ 4.77 µM) | MIC Pseudomonas aeruginosa ATCC 27853 [10]: 2 µg/mL (≈ 1.19 µM); MIC Candida albicans ATCC MYA-2876 [11]: 8 µg/mL (≈ 4.77 µM); MIC Salmonella typhimurium ATCC 14028 [12]: 2 µg/mL (≈ 1.19 µM); MIC Candida glabrata ATCC 15126 [13]: 8 µg/mL (≈ 4.77 µM); MIC Corynebacterium ATCC 7715 [14]: 8 µg/mL (≈ 4.77 µM); MIC Enterococcus ATCC 29212 (Enterococcus ATCC 29212): 2 µg/mL (≈ 1.19 µM); MIC Serratia marcescens ATCC 29021 [15]: 4 µg/mL (≈ 2.39 µM); MIC Candida utilis ATCC 9950 (Candida utilis ATCC 9950): 8 µg/mL (≈ 4.77 µM); Trypsin MIC [16]: 1 µg/mL
